This passage reports ΔTm results from ChEMBL document CHEMBL1145498, “A systematic interaction map of validated kinase inhibitors with Ser/Thr kinases” (Proc Natl Acad Sci U S A, 2007).

The target in assay [1] is Calcium/calmodulin-dependent protein kinase type II subunit beta (Homo sapiens) (UniProt Q13554).
The target of assay [2] is Calcium/calmodulin-dependent protein kinase type II subunit delta (Homo sapiens) (UniProt Q13557).
For assay [3], the target named is Calcium/calmodulin-dependent protein kinase kinase 2 (Homo sapiens, UniProt Q96RR4).
For assay [4], the target named is Cyclin-dependent kinase 6 (Homo sapiens) (UniProt Q00534).
Chain of Cyclin-dependent kinase 6 (Homo sapiens) (Q00534 whole entry): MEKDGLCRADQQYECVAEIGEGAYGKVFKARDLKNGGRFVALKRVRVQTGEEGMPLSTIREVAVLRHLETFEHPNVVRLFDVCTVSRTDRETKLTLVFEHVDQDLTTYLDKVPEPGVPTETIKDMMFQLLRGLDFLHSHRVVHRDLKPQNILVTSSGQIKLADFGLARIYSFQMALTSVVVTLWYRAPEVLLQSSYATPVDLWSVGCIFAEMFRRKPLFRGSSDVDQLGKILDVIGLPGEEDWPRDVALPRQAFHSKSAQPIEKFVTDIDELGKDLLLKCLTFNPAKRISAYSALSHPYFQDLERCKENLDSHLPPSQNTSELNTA
The target of assay [5] is Dual specificity protein kinase CLK1 (Homo sapiens) (UniProt P49759).
Chain of Dual specificity protein kinase CLK1 (Homo sapiens) (P49759 whole entry, looked up): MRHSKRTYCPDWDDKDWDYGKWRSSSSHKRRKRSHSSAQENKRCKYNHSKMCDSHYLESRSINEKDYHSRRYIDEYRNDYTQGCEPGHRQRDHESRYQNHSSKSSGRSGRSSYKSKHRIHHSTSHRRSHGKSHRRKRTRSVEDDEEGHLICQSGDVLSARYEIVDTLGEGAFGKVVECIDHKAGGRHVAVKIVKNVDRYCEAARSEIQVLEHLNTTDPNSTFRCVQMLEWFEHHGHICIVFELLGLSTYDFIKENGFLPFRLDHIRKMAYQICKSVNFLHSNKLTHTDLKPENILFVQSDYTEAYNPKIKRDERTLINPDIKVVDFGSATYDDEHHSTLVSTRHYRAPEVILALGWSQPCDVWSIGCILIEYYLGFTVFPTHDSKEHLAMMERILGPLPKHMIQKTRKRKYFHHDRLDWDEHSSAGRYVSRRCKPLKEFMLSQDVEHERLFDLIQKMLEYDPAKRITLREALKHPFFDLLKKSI
The target in assay [6] is T1, Myotonin-protein kinase (Homo sapiens) (UniProt Q09013).
T1 sequence (whole entry): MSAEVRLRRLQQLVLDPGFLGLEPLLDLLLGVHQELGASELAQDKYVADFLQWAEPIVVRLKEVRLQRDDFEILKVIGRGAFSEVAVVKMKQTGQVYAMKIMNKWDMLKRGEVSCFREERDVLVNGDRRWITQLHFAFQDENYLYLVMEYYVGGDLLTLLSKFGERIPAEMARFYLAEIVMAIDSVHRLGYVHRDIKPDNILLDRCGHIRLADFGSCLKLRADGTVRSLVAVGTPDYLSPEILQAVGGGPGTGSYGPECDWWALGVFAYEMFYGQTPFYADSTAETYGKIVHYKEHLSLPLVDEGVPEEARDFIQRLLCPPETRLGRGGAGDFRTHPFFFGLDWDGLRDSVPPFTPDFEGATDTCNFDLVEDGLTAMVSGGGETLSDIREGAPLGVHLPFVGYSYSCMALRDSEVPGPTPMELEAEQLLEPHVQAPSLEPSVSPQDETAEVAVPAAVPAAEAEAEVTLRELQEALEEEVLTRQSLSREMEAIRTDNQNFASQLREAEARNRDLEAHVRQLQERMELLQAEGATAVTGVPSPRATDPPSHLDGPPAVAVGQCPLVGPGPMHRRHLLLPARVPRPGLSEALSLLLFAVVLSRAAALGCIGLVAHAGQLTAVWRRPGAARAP

For assay [7], the target named is Glycogen synthase kinase-3 beta (Homo sapiens, UniProt P49841).
Chain of Glycogen synthase kinase-3 beta (P49841 whole entry, looked up): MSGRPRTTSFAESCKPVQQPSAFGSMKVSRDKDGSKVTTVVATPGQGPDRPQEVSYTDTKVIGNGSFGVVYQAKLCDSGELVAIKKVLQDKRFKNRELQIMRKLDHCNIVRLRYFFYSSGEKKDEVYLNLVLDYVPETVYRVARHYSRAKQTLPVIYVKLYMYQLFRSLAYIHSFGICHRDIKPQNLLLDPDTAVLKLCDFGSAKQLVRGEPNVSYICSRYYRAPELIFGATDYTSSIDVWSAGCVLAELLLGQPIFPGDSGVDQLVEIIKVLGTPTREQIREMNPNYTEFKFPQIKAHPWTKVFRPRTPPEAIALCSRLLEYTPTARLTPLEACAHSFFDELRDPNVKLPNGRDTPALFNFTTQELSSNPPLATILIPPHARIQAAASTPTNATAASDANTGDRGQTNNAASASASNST
For assay [8], the target named is Serine/threonine-protein kinase PAK 4 (Homo sapiens) (UniProt O96013).
Chain of Serine/threonine-protein kinase PAK 4 (Homo sapiens) (O96013 whole entry, looked up): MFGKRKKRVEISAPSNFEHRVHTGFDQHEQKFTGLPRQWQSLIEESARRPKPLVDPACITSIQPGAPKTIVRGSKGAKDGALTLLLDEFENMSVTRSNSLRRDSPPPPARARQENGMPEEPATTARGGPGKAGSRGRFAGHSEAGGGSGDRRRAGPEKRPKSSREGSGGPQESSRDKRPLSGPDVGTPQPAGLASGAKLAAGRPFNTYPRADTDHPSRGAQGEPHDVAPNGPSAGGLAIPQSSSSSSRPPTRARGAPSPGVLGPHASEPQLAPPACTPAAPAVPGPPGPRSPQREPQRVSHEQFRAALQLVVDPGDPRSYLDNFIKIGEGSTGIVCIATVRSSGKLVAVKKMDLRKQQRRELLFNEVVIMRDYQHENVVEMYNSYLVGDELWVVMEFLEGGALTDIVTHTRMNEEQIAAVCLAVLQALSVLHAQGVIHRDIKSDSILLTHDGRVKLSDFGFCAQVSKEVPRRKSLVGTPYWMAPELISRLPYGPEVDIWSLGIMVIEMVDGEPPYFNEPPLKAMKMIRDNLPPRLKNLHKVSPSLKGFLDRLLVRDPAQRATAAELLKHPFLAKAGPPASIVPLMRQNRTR
In assay [9] the target is Ribosomal protein S6 kinase alpha-3 (Homo sapiens) (UniProt P51812).
Chain of Ribosomal protein S6 kinase alpha-3 (Homo sapiens) (P51812 whole entry): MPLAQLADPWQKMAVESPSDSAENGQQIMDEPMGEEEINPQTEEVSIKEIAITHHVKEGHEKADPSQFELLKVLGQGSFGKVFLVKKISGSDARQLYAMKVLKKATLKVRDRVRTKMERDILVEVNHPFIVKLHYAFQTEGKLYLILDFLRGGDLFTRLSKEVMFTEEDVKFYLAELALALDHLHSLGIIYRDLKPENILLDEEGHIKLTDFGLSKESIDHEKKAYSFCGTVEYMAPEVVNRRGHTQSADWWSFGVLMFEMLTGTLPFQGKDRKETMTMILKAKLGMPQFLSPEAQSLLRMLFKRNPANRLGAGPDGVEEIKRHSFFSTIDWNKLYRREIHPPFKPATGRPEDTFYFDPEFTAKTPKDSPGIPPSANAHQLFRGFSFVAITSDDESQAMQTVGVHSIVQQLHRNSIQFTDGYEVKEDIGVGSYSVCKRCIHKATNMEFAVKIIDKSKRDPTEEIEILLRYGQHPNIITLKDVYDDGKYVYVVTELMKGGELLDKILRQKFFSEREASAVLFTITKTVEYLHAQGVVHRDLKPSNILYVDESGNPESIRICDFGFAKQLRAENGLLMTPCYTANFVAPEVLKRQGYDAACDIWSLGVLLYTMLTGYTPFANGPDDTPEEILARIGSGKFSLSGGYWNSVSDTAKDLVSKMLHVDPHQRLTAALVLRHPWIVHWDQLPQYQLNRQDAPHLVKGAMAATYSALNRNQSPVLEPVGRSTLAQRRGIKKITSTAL
Assay [10] has as its target Serine/threonine-protein kinase 10 (Homo sapiens) (UniProt O94804).
Assay [11] addresses T2, Serine/threonine-protein kinase 17A (Homo sapiens) (UniProt Q9UEE5).
T2 sequence (whole entry): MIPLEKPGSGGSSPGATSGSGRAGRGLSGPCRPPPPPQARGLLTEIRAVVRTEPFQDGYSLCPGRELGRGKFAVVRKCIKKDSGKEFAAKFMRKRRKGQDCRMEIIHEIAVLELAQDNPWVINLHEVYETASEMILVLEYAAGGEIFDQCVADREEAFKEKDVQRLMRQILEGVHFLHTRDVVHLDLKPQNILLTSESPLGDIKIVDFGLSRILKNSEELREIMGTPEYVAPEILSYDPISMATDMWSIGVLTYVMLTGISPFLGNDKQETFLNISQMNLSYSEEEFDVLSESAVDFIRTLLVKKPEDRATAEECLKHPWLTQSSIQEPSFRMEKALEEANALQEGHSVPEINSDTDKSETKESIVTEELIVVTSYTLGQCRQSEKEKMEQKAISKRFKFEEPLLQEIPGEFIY

For assay [12], the target named is Serine/threonine-protein kinase 26 (Homo sapiens) (UniProt Q9P289).
Chain of Serine/threonine-protein kinase 26 (Homo sapiens) (Q9P289 2-416 limits assumed): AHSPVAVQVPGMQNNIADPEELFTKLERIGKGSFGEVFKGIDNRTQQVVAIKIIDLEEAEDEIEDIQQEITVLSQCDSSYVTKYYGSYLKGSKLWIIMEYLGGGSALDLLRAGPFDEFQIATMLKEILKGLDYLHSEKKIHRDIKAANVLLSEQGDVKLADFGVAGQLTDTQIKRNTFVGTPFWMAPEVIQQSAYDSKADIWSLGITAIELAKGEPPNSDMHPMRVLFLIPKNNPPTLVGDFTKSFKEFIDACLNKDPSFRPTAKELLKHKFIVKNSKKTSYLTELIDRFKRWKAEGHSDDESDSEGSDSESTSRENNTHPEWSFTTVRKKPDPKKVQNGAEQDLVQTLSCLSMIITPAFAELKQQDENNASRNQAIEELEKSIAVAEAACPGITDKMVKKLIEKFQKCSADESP
In assay [13] the target is TRAF2 and NCK-interacting protein kinase (Homo sapiens) (UniProt Q9UKE5).
Assay [14] concerns the target T3, Lymphokine-activated killer T-cell-originated protein kinase (Homo sapiens) (UniProt Q96KB5).
T3 sequence (whole entry): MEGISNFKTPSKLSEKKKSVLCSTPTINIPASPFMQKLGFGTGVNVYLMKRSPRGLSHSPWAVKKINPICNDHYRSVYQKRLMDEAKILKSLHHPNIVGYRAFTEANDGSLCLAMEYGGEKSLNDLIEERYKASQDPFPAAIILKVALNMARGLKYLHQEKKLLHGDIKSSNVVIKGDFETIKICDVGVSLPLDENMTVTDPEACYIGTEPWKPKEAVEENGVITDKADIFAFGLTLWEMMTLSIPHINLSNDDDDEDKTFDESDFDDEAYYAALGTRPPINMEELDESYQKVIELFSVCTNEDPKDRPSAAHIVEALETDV

In assay [15] the target is T4, Serine/threonine-protein kinase VRK1 (Homo sapiens) (UniProt Q99986).
T4 sequence (whole entry): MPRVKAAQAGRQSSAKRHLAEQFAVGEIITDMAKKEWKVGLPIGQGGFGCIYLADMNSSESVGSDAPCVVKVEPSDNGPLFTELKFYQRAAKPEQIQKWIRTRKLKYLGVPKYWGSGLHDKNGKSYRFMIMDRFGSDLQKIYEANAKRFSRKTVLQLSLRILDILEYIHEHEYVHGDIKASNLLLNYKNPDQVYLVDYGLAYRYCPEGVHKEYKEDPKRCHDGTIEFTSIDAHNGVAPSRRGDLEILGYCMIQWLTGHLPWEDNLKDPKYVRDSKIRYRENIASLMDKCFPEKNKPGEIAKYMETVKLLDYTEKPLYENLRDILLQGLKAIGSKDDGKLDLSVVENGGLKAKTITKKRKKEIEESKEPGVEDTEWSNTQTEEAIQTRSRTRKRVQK

One may read the ΔTm as the shift of the melting midpoint relative to a reference.

Chain of Serine/threonine-protein kinase 10 (Homo sapiens) (O94804 whole entry, looked up): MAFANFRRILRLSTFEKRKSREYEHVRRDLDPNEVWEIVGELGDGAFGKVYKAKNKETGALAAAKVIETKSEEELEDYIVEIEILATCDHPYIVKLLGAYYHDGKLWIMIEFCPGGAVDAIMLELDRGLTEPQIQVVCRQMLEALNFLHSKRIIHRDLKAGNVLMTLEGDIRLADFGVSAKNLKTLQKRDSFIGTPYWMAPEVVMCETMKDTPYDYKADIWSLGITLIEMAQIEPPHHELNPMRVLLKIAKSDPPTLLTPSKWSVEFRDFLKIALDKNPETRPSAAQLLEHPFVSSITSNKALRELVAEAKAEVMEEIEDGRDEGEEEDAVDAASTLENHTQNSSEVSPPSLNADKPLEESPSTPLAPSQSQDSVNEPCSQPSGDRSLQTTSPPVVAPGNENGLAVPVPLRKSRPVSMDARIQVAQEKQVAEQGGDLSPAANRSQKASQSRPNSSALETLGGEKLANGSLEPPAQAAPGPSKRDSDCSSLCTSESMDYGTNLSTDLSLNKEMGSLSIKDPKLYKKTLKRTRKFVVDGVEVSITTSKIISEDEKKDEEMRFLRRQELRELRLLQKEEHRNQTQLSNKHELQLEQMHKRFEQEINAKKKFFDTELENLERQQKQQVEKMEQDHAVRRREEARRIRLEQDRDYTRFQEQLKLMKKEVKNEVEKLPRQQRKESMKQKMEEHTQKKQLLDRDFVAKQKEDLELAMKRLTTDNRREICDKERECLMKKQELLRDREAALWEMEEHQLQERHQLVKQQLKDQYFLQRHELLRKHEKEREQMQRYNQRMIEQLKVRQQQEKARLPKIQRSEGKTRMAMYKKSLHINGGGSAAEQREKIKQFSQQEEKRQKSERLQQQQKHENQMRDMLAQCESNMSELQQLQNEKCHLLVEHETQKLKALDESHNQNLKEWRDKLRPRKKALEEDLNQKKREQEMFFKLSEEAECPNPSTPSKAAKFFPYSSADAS
Chain of Calcium/calmodulin-dependent protein kinase type II subunit delta (Homo sapiens) (Q13557 whole entry): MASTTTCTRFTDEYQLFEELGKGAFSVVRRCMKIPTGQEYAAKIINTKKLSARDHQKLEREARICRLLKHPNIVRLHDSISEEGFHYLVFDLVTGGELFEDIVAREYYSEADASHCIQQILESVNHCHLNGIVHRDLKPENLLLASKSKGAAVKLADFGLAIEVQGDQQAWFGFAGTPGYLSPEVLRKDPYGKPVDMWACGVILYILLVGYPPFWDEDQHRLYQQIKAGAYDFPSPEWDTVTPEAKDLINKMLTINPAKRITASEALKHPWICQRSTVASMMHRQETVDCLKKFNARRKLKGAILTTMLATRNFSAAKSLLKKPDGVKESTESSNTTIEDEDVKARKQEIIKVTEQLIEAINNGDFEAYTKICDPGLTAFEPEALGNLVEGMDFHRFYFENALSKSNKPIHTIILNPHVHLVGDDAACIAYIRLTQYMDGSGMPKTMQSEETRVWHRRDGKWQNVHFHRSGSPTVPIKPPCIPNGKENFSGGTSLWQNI

Regarding `Cc1cc2ncc(-c3ccccc3)nc2cc1C`, the shift in melting temperature (ΔTm) is 0.8 °C in [1]; 0.4 °C in [2]; -0.4 °C in assay [3]; 0.4 °C in assay [4]; 1.4 °C in assay [5]; 1.2 °C in [6]. Also, the ΔTm was -0.6 °C in assay [7]; 1.1 °C in assay [8]; 0.2 °C in assay [9]; 1 °C in [10]; 1.5 °C in [11]; 1.2 °C in assay [12]. The ΔTm is 0.6 °C in assay [13], -0.6 °C in assay [14] and 1.2 °C in [15].
In the case of `CN(C)c1ccc(CC2C(=O)Nc3ccccc32)cc1` (stereo not given), the ΔTm in assay [1] is 0.4 °C; in assay [2], 0.5 °C; in assay [3], 2 °C; in assay [4], 0.8 °C; in [5], 2 °C; in assay [6], -1.8 °C. In addition, the thermal shift (ΔTm) is 1.2 °C in assay [7]; 0.9 °C in assay [8]; 3.6 °C in assay [9]; 0.9 °C in [10]; 6.2 °C in assay [11]; 0.3 °C in [12]. For the same compound, the shift in melting temperature (ΔTm) is 4.1 °C in assay [13], 0.1 °C in [14] and -0.2 °C in assay [15].
For `Nc1ncnc2c1c(I)cn2[C@@H]1O[C@H](CO)[C@@H](O)[C@H]1O`, the ΔTm was 0.4 °C in assay [1]; -0.4 °C in assay [2]; 2 °C in assay [3]; -0.2 °C in [4]; 9.5 °C in assay [5]; -0.3 °C in assay [6]. Further, the ΔTm in [7] is 2 °C; in assay [8], 1.1 °C; in [9], 1.7 °C; in [10], 4.7 °C; in assay [11], 2.8 °C; in [12], 2.1 °C. Also, the thermal shift (ΔTm) in [13] is 1.6 °C; in assay [14] it was 0 °C; in [15], 0.1 °C.
For the compound `O=C1C=C2C(=Nc3c2c2c(c4c3=NC3=C4CCC=C3)C=NC=2)CC1`, the ΔTm in assay [1] stood at 0.1 °C; in [2] it was 2 °C; in [3] it was 6.3 °C; in assay [4] it was 2.7 °C; in assay [5], 3.1 °C; in assay [6], 5.1 °C. Also, the ΔTm in [7] turned out to be 2.3 °C; in assay [8], 3.8 °C; in assay [9], 4.4 °C; in assay [10], 3.9 °C; in assay [11] it was 2.6 °C; in assay [12], 8.5 °C. Moreover, the thermal shift (ΔTm) in assay [13] came to 1.3 °C; in assay [14], 0.9 °C; in [15], 1.1 °C.
In the case of `Oc1ccc(-c2nc(-c3ccc(F)cc3)c(-c3ccncc3)[nH]2)cc1`, the shift in melting temperature (ΔTm) was 0.1 °C in assay [1]; -0.1 °C in [2]; -0.2 °C in assay [3]; 0.2 °C in [4]; 0.8 °C in [5]; 0.2 °C in assay [6]. Moreover, the shift in melting temperature (ΔTm) in assay [7] was 4.7 °C; in [8], -0.3 °C; in assay [9], 0.6 °C; in [10], 4.4 °C; in assay [11], 1 °C; in assay [12], -0.4 °C. Also, the figures for the ΔTm in [13], in assay [14] and in [15] were 1.9 °C, 0.3 °C and 0 °C, respectively.
Take `O=c1ccc2ccc(O)c(O)c2o1` [DAPHNETIN]: the ΔTm is 0.1 °C in [1]; -0.1 °C in [2]; 0.5 °C in [3]; -0.3 °C in assay [4]; 0 °C in [5]; -0.6 °C in assay [6]. In addition, the ΔTm in [7] is 0.2 °C; in assay [8], 0 °C; in assay [9] it was 0 °C; in assay [10], -0.5 °C; in assay [11] it was 0.4 °C; in assay [12], -0.2 °C. Moreover, the results for the shift in melting temperature (ΔTm) in [13], in assay [14] and in assay [15] were 0.3 °C, -0.4 °C and 0 °C, respectively.
As for `O=C1Nc2ccc(I)cc2/C1=C\c1cc(Br)c(O)c(Br)c1`, the thermal shift (ΔTm) in assay [1] is -0.1 °C; in [2] it was 0.9 °C; in assay [3], 3.5 °C; in assay [4], 0.3 °C; in assay [5], 1.3 °C; in [6] it was 0.2 °C. Further, the ΔTm was 3.6 °C in assay [7]; -0.8 °C in assay [8]; 2.7 °C in assay [9]; 0.5 °C in assay [10]; 4.8 °C in [11]; 1.6 °C in [12]. Further, the values for the ΔTm in assay [13], in [14] and in assay [15] were 3.9 °C, 0.9 °C and 1.7 °C, respectively.
With `O=c1c(-c2ccc(F)cc2)c(-c2ccncc2)[nH]n1-c1ccc(Cl)cc1`, the ΔTm was found to be 0 °C in assay [1]; 0.1 °C in [2]; 0.2 °C in [3]; 0.6 °C in assay [4]; 1 °C in assay [5]; 0.5 °C in [6]. The ΔTm in [7] came out at 1.9 °C; in assay [8] it was 0.7 °C; in assay [9] it was 1.2 °C; in [10], 4.3 °C; in assay [11], 0.2 °C; in assay [12] it was 0.6 °C. The shift in melting temperature (ΔTm) is -0.2 °C in [13], 0.8 °C in [14] and 0.8 °C in assay [15].
For the compound `Oc1cccc(-c2nc(N3CCOCC3)c3oc4ncccc4c3n2)c1`, the thermal shift (ΔTm) in assay [1] is 0.1 °C; in assay [2], -0.6 °C; in [3], -0.3 °C; in assay [4], -0.4 °C; in [5] it was 0.6 °C; in assay [6] it was -0.7 °C. Moreover, the shift in melting temperature (ΔTm) in [7] is 0.1 °C; in [8] it was 0.7 °C; in assay [9] it was 0.1 °C; in assay [10], -0.4 °C; in [11] it was 1.5 °C; in assay [12] it was 0.9 °C. Also, the ΔTm in [13] was 0.3 °C; in assay [14], 0.5 °C; in assay [15] it was -0.1 °C.
For `O=c1cc(N2CCOCC2)oc2c(-c3ccccc3)cccc12`, the shift in melting temperature (ΔTm) came to 0.5 °C in assay [1]; 0.4 °C in assay [2]; 0.4 °C in assay [3]; 0.5 °C in assay [4]; 1.3 °C in assay [5]; 0.4 °C in [6]. Also, the ΔTm was determined as 1.1 °C in assay [7]; 0.9 °C in [8]; 0 °C in assay [9]; 0.8 °C in [10]; 1 °C in assay [11]; 0.2 °C in assay [12]. In addition, the ΔTm was -0.2 °C in assay [13], -0.5 °C in assay [14] and 0.8 °C in assay [15].
